Results published in patent publication US20260076948A1, “TREATMENT OF DIABETIC RETINOPATHY USING ENDOTHELIN RECEPTOR ANTAGONISTS” (Perfuse Therapeutics, Inc., priority 2019, published 2026).
“Also recorded” adds a separate entry of the source.

Tests used:
ETA = target: T1, ETA (Homo sapiens, UniProt P25101); experiment: Functional potency for ETA receptor; format: biochemical
T1 sequence (P25101 21-427): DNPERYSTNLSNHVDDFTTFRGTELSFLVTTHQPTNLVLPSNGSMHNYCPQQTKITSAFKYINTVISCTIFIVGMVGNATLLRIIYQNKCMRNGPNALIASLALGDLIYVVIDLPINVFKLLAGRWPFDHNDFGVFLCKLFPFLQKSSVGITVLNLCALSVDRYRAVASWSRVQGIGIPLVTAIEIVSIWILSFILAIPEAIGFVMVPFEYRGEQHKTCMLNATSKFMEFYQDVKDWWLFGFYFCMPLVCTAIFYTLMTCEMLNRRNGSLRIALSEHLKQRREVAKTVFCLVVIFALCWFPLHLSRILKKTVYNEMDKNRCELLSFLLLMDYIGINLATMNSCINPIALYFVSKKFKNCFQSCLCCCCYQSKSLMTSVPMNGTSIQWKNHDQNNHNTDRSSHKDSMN
Text: (§1) In the above table, the physicochemical data, e.g., solubility, were obtained following standard protocols known in the field (see, e.g., Reis et al., Mini Rev Med Chem., 2010, 10(11):1071-6; Avdeef et al., Expert Opin Drug Metab Toxicol., 2005, 1(2):325-42; Bharate et al., Comb Chem High Throughput Screen., 2016, 19(6):461-9; and Jain et al., J Pharm Biomed Anal., 2013, 86:11-35.); and the biochemical data, i.e., potency for ETA/ETB, were obtained following the protocols known in the field (see, e.g., Kirkby et al., Br J Pharmacol., 2008, 153(6):1105-19; and Maguire et al., Br J Pharmacol., 2014, 171(24):5555-72.).

[1] = Solubility (pH 2, pH 7, ethyl acetate); format: physicochemical
Text: as §1

Stability in solid state = format: physicochemical; conditions: 2 h@125° C.
Text: as §1

Permeability (PAMPA) = format: in vitro ADME; conditions: PAMPA log Pe and PSA
Text: as §1

[2] = test system: Morrison's rat model of glaucoma (elevated IOP); experiment: Morrison's rat model of glaucoma (RGC counts, PERG); format: in vivo, Brown Norway rats; conditions: topical eye drops 100 μg per dose, five days a week, four weeks
Text: Adult male and female retired breeder Brown Norway rats (approximate age groups of 8 to 11 months) were obtained from Envigo (Indianapolis, IN). Baseline IOP measurements and pattern electroretinogram (PERG) amplitudes were collected prior to the surgery for elevation of IOP (to ensure that the IOP and PERG amplitudes were in the expected range of values). IOP was elevated in one eye (left eye) of the rats, while the corresponding right eyes served as contralateral controls. The Morrison method to elevate IOP in rats was carried out by injection of 50 μL. of hypertonic saline through the episcleral veins to sclerose the trabecular meshwork. IOP was measured twice a week throughout the entire duration of the experiment. […] After detecting an elevation of IOP for two consecutive days, topical administration of eye drops (20 μL (100 μg) per dose of the tested compounds in the IOP elevated eye) was commenced and carried out for five days a week for a total of four weeks. In the 4th week of treatment, PERG analysis was carried out and rats were sacrificed by an overdose of pentobarbital (Fatal-Plus). Aqueous humor was collected from the rat eyes, frozen and shipped for analysis. Retinal flat mounts were prepared, immunostained with the RGC marker, Brn3a antibody and surviving RGCs were counted in two eccentricities (central and peripheral).
For this study, the Morrison's model was used to induce ocular hypertension in adult male retired breeder Brown Norway rats as previously described by Morrison et al., (Morrison J C, Moore C G, Deppmeier L M, Gold B G, Meshul C K, Johnson E C. A rat model of chronic pressure-induced optic nerve damage. Exp Eye Res. 1997; 64(1):85-96).
The immunostained retinal flat mounts were obtained to measure the retinal ganglion cell (RGC) counts. To obtain immunostained retinal flat mounts, the animals were euthanized after the treatments and then their eyes were enucleated. The eye cups were fixed overnight at 4° C. in 4% paraformaldehyde (PFA) and retinal flat mounts were prepared for collecting images. The retinal ganglion cell (RGC) counting was conducted using the images of immunostained retinal flat mounts. The images were uploaded to ImageJ, a photo editor designed for biology research (Rasband, 1997-2018) and the labeled retinal ganglion cells were counted manually in two eccentricities (central and peripheral).
Pattern ERG (PERG) was used to assess the RGC function. […] Briefly, PERG signals were acquired from a DTL-plus electrode placed on the lower part of the corneal surface and the PERG waves were analyzed using the EMWIN software (LKC). The difference between the amplitude of the major positive (P1) and negative (N2) waves were calculated to decipher the PERG amplitude.

[3] = Pharmacokinetics after topical or oral administration in the rat; format: in vivo, Brown Norway rats
Description: After the administrations, the animals (N=2) were euthanized at different time points (e.g. 4 and 8 hours) and tissues were collected for analysis. List of tissues collected include plasma, retina/retinal pigment epithelium (RPE)/choroid, vitreous humor and aqueous humor.

ETA/ETB receptor = conditions: background statement; cited from earlier work

Structure (SMILES): CCCCCS(=O)(=O)N(CCC)CCN1C[C@H](c2ccc3c(c2)OCO3)[C@@H](C(=O)O)[C@@H]1c1ccc(OC)c(F)c1 [A-182086, (2R,3R,4S)-4-(2H-1,3-benzodioxol-5-yl)-2-(3-fluoro-4-methoxyphenyl)-1-[2-(N-propylpentane-1-sulfonamido)ethyl]pyrrolidine-3-carboxylic acid]
- Functional potency for ETA and ETB receptors, rating in words (ETA): High potency
- Specificity ETA versus ETB, rating in words (ETA; ETA vs ETB): Low specificity
- Solubility in Ethyl Acetate, rating in words ([1]; ethyl acetate): Good
- Solubility at pH 2, comparison in words ([1]; pH 2): superior to that of Edonentan
- Stability in Solid State, in words (Stability in solid state): unstable
- Stability in Solid State, remaining (Stability in solid state): about 87% remaining/
- Permeability, rating in words (Permeability (PAMPA)): Mid-High
- Pattern electroretinogram (PERG) changes, RGC function [2]: maintained RGC function
- Retinal ganglion cell (RGC) counts in the peripheral retina [2]: prevented RGC loss
- Ocular exposure after topical administration (retina/RPE/choroid, aqueous humor, vitreous humor) ([3]; eye drop 100 μg, 4 and 8 hours): detected; also recorded: permeate through cornea/sclera and achieve retina exposure
- Detection in the retina/RPE/choroid after oral administration ([3]; oral, 50 mg/kg as printed): detectable
- Endothelin receptor antagonism, description in words (ETA/ETB receptor): potent dual ETA/ETB receptor antagonist
